Experimental data: patent EP0336417A2, “Phosphonate initiators for light cured compositions” (DENTSPLY INTERNATIONAL, INC., priority 1988, dated 1989)

Experiment: Solubility of initiator in NCO/TEGDMA resin
Assay type: physicochemical
Details: not soluble above about 2%; percentages by weight
From the text: NCO/TEGDMA is a resin blend described in copending SN 040, 636 and used as illustrated in U.S. patent 4,514,174 and comprises a blend of NCO, the reaction product of hexamethylene diisocyanate (HMDI) and Bis-GMA [drawing 4] , and triethyleneglycol dimethacrylate (TEGDMA). At concentrations above about 2%, the benzoyl di (2,6 dimethylphenyl) phosphonate is not soluble in NCO/-TEGDMA resin. When used with an NCO/-TEGDMA resin in concentrations up to about 2%, however, the resin can be cured to a clear, hard film.

Structure (SMILES): Cc1cccc(C)c1OP(=O)(Oc1c(C)cccc1C)C(=O)c1ccccc1 [Benzoyl di-(2,6-dimethylphenyl) phosphonate]
- concentration up to which soluble in NCO/TEGDMA resin: about 2%
